# Assay results reported in patent US20260207602A1, “EGFR INHIBITORS” (Blueprint Medicines Corporation, priority 2022, published 2026).
# Columns and labels:
# [1] = biological target: intracellular phosphorylation of EGFR (Tyr1068) in PC-9 cells (Homo sapiens, UniProt P00533, DEL746-750); assay: PC-9 pEGFR AlphaLISA assay; format: cell-based; conditions: 4 hours incubation, read-out: Phos EGFR PC9 IC50
# In short: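 PC-9 cells (EGFR del746-750) in phenol-free DMEM/10% FBS, adhered overnight, then exposed to 10-point 4-fold compound dilutions for 4 h at 37 °C. Lysates assayed for pEGFR Tyr1068 by AlphaLISA SureFire Ultra; IC50 from percent pEGFR inhibition vs log concentration.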
# [2] = biological target: T1, EGFR (d746-750) (Homo sapiens, UniProt P00533, DEL746-750); assay: Biochemical EGFR inhibition assay (Caliper mobility shift), EGFR (d746-750); conditions: biochemical Caliper mobility shift assay, EGFR Exon 19-del enzyme; read-out: Enz EGFR Exon 19-del IC50
# T1 construct: purchased SignalChem E10-122JG
# In short: (§1)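 Recombinant mutant enzyme, 2.5 µM fluorescent peptide, ATP at 1.0 mM or Km, 1.0% DMSO, 25 °C. Stopped with EDTA once 10–20% of peptide was phosphorylated; apparent IC50 derived from electrophoretic product/substrate separation.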
# [3] = biological target: T2, EGFR L858R (Homo sapiens, UniProt P00533, L858R); assay: Biochemical EGFR inhibition assay (Caliper mobility shift), EGFR L858R; conditions: biochemical Caliper mobility shift assay, EGFR L858R enzyme; read-out: Enz EGFR L858R IC50
# T2 construct: purchased SignalChem E10-122BG
# In short: as §1
# T1 sequence (P00533 with tags, fused parts or gaps DEL746-750 limits assumed): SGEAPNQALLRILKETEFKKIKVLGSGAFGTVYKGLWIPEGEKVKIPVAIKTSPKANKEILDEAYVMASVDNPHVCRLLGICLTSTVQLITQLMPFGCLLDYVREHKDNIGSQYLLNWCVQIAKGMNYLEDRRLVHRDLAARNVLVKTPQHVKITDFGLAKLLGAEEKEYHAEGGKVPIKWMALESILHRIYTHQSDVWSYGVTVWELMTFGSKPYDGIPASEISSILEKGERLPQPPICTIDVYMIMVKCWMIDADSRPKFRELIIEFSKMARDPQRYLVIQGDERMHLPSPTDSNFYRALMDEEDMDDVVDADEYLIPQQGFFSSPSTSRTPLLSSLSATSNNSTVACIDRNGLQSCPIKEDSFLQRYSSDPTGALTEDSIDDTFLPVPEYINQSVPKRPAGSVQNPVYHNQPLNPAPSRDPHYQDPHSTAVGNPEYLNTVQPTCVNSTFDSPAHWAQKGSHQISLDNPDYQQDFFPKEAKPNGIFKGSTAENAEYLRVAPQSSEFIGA
# intracellular phosphorylation of EGFR (Tyr1068) in PC-9 cells, sequence (P00533 with tags, fused parts or gaps DEL746-750): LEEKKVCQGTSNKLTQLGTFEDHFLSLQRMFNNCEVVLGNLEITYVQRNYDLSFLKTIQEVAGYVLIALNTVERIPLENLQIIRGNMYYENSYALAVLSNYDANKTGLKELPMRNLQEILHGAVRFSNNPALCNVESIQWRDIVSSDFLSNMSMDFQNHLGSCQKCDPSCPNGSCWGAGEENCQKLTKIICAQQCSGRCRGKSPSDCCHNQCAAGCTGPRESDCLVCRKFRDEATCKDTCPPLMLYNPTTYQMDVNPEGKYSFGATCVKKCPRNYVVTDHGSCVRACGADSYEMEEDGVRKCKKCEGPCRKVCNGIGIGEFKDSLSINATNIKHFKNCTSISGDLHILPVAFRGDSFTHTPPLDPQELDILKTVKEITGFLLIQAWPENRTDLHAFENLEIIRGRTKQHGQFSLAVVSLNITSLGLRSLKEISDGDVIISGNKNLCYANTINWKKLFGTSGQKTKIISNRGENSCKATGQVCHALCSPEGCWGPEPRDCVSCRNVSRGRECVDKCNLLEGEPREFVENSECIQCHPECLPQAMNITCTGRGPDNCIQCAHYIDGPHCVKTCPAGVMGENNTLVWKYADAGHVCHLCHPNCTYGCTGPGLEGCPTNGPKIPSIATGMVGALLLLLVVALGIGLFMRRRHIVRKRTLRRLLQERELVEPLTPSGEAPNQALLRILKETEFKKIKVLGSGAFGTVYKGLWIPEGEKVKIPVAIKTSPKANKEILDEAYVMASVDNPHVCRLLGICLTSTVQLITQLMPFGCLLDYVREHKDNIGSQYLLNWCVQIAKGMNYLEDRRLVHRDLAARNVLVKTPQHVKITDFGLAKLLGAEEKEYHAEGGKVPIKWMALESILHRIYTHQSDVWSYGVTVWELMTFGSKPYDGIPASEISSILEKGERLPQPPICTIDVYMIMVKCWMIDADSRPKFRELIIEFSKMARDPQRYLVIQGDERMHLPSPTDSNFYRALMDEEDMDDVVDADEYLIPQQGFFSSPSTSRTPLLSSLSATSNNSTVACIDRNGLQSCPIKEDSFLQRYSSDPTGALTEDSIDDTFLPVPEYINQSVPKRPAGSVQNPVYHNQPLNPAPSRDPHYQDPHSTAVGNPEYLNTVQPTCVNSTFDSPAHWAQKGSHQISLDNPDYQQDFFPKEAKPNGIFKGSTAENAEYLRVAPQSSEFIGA
# T2 sequence (P00533 25-1210 L858R): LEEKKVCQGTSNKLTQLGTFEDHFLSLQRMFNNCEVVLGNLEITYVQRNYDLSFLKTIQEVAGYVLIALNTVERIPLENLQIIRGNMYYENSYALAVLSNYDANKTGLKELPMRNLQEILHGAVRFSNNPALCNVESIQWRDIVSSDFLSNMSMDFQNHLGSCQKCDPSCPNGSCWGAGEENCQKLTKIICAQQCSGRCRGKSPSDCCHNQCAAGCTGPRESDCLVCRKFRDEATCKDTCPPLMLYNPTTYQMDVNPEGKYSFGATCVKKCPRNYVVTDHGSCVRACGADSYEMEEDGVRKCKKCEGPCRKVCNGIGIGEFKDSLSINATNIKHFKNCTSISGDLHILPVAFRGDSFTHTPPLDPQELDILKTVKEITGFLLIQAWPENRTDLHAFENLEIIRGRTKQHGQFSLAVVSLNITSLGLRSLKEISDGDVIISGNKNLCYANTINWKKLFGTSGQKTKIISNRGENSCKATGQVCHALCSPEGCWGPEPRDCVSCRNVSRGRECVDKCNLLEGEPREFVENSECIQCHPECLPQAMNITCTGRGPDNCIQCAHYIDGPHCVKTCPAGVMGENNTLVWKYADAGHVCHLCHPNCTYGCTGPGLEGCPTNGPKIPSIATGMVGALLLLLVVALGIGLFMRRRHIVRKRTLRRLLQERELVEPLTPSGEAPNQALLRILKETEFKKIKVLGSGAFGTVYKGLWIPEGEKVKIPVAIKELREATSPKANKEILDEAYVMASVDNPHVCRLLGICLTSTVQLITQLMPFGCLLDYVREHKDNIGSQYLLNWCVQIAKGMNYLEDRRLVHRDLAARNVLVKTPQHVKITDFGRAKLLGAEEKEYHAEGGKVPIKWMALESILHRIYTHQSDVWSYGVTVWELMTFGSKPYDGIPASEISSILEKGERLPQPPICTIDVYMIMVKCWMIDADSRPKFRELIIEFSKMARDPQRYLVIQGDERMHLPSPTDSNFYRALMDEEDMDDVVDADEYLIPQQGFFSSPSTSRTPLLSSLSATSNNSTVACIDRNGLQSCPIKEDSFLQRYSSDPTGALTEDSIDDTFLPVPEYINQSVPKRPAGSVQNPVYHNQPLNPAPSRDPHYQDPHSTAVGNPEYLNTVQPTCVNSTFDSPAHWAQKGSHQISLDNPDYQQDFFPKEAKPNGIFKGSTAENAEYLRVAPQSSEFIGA
IC50 [1],IC50 [2],IC50 [3],SMILES
0.0101 to 0.05 µM,≤ 0.01 µM,≤ 0.01 µM,"Cn1cc(-c2cc(OC[C@H]3CCCO3)c3c(Nc4ccc5ncsc5c4)ncnc3c2)cn1 [Example 31, (R)-N-(7-(1-methyl-1H-pyrazol-4-yl)-5-((tetrahydrofuran-2-yl)methoxy)quinazolin-4-yl)benzo[d]thiazol-6-amine]"
0.0101 to 0.05 µM,≤ 0.01 µM,≤ 0.01 µM,"Cn1cc(-c2cc(OC[C@@H]3CCCO3)c3c(Nc4ccc5ncsc5c4)ncnc3c2)cn1 [Example 32, (S)-N-(7-(1-methyl-1H-pyrazol-4-yl)-5-((tetrahydrofuran-2-yl)methoxy)quinazolin-4-yl)benzo[d]thiazol-6-amine]"
0.0101 to 0.05 µM,≤ 0.01 µM,≤ 0.01 µM,"CN1CCC[C@@H]1COc1cc(-c2cnn(C)c2)cc2ncnc(Nc3ccc4ncsc4c3)c12 [Example 33, (R)-N-(7-(1-methyl-1H-pyrazol-4-yl)-5-((1-methylpyrrolidin-2-yl)methoxy)quinazolin-4-yl)benzo[d]thiazol-6-amine]"
0.0101 to 0.05 µM,≤ 0.01 µM,0.0101 to 0.05 µM,"CN1CC[C@H](Oc2cc(-c3cnn(C)c3)cc3ncnc(Nc4ccc5ncsc5c4)c23)C1 [Example 34, (S)-N-(7-(1-methyl-1H-pyrazol-4-yl)-5-((1-methylpyrrolidin-3-yl)oxy)quinazolin-4-yl)benzo[d]thiazol-6-amine]"
0.0101 to 0.05 µM,≤ 0.01 µM,0.0101 to 0.05 µM,"CN1CC[C@@H](Oc2cc(-c3cnn(C)c3)cc3ncnc(Nc4ccc5ncsc5c4)c23)C1 [Example 35, (R)-N-(7-(1-methyl-1H-pyrazol-4-yl)-5-((1-methylpyrrolidin-3-yl)oxy)quinazolin-4-yl)benzo[d]thiazol-6-amine]"
≤ 0.01 µM,≤ 0.01 µM,≤ 0.01 µM,"Cn1cc(-c2cc(O[C@H]3CCOC3)c3c(Nc4ccc5ncsc5c4)ncnc3c2)cn1 [Example 36, (S)-N-(7-(1-methyl-1H-pyrazol-4-yl)-5-((tetrahydrofuran-3-yl)oxy)quinazolin-4-yl)benzo[d]thiazol-6-amine]"
0.0101 to 0.05 µM,≤ 0.01 µM,≤ 0.01 µM,"Cn1cc(-c2cc(O[C@@H]3CCOC3)c3c(Nc4ccc5ncsc5c4)ncnc3c2)cn1 [Example 37, (R)-N-(7-(1-methyl-1H-pyrazol-4-yl)-5-((tetrahydrofuran-3-yl)oxy)quinazolin-4-yl)benzo[d]thiazol-6-amine]"
≤ 0.01 µM,≤ 0.01 µM,≤ 0.01 µM,"Cn1cc(-c2cc(OC3CC4(COC4)C3)c3c(Nc4ccc5ncsc5c4)ncnc3c2)cn1 [Example 38, N-(5-((2-oxaspiro[3.3]heptan-6-yl)oxy)-7-(1-methyl-1H-pyrazol-4-yl)quinazolin-4-yl)benzo[d]thiazol-6-amine]"
0.0101 to 0.05 µM,≤ 0.01 µM,≤ 0.01 µM,"Cn1cc(-c2cc(OCC3(C)COC3)c3c(Nc4ccc5ncsc5c4)ncnc3c2)cn1 [Example 49, N-(7-(1-methyl-1H-pyrazol-4-yl)-5-((3-methyloxetan-3-yl)methoxy)quinazolin-4-yl)benzo[d]thiazol-6-amine]"
0.0101 to 0.05 µM,≤ 0.01 µM,≤ 0.01 µM,"Cn1cc(-c2cc(OCC(F)(F)F)c3c(Nc4ccc5ncsc5c4)ncnc3c2)cn1 [Example 50, N-(7-(1-methyl-1H-pyrazol-4-yl)-5-(2,2,2-trifluoroethoxy)quinazolin-4-yl)benzo[d]thiazol-6-amine]"
0.0101 to 0.05 µM,≤ 0.01 µM,≤ 0.01 µM,"CN1CCC(C)(COc2cc(-c3cnn(C)c3)cc3ncnc(Nc4ccc5ncsc5c4)c23)C1=O (stereo not drawn) [Example 54, 3-(((4-(benzo[d]thiazol-6-ylamino)-7-(1-methyl-1H-pyrazol-4-yl)quinazolin-5-yl)oxy)methyl)-1,3-dimethylpyrrolidin-2-one]"
≤ 0.01 µM,≤ 0.01 µM,≤ 0.01 µM,"Cn1cc(-c2cc(OC3(C)CC3)c3c(Nc4ccc5ncsc5c4)ncnc3c2)cn1 [Example 57, N-(7-(1-methyl-1H-pyrazol-4-yl)-5-(1-methylcyclopropoxy)quinazolin-4-yl)benzo[d]thiazol-6-amine]"
0.0101 to 0.05 µM,≤ 0.01 µM,≤ 0.01 µM,"CN1CCC(COc2cc(-c3cnn(C)c3)cc3ncnc(Nc4ccc5ncsc5c4)c23)C1=O (stereo not drawn) [Example 61, 3-(((4-(benzo[d]thiazol-6-ylamino)-7-(1-methyl-1H-pyrazol-4-yl)quinazolin-5-yl)oxy)methyl)-1-methylpyrrolidin-2-one]"
≤ 0.01 µM,≤ 0.01 µM,≤ 0.01 µM,"C[C@@H](Oc1cc(-c2cnn(C)c2)cc2ncnc(Nc3ccc4ncsc4c3)c12)C1CC1 [Example 65, (R)-N-(5-(1-cyclopropylethoxy)-7-(1-methyl-1H-pyrazol-4-yl)quinazolin-4-yl)benzo[d]thiazol-6-amine]"
≤ 0.01 µM,≤ 0.01 µM,≤ 0.01 µM,"C[C@H](Oc1cc(-c2cnn(C)c2)cc2ncnc(Nc3ccc4ncsc4c3)c12)C1CC1 [Example 66, (S)-N-(5-(1-cyclopropylethoxy)-7-(1-methyl-1H-pyrazol-4-yl)quinazolin-4-yl)benzo[d]thiazol-6-amine]"
0.0101 to 0.05 µM,≤ 0.01 µM,≤ 0.01 µM,"C[C@@H](Oc1cc(-c2cnn(C)c2)cc2ncnc(Nc3ccc4ncsc4c3)c12)C(F)(F)F [Example 67, (R)-N-(7-(1-methyl-1H-pyrazol-4-yl)-5-((1,1,1-trifluoropropan-2-yl)oxy)quinazolin-4-yl)benzo[d]thiazol-6-amine]"
≤ 0.01 µM,≤ 0.01 µM,≤ 0.01 µM,"C[C@H](Oc1cc(-c2cnn(C)c2)cc2ncnc(Nc3ccc4ncsc4c3)c12)C(F)(F)F [Example 68, (S)-N-(7-(1-methyl-1H-pyrazol-4-yl)-5-((1,1,1-trifluoropropan-2-yl)oxy)quinazolin-4-yl)benzo[d]thiazol-6-amine]"
≤ 0.01 µM,≤ 0.01 µM,≤ 0.01 µM,"CN1CCC[C@H](Oc2cc(-c3cnn(C)c3)cc3ncnc(Nc4ccc5ncsc5c4F)c23)C1 [Example 69, (S)-7-fluoro-N-(7-(1-methyl-1H-pyrazol-4-yl)-5-((1-methylpiperidin-3-yl)oxy)quinazolin-4-yl)benzo[d]thiazol-6-amine]"
0.0101 to 0.05 µM,≤ 0.01 µM,≤ 0.01 µM,"Cn1cc(-c2cc(OC3CC3)c3c(Nc4ccc5ncsc5c4F)ncnc3c2)cn1 [Example 76, N-(5-cyclopropoxy-7-(1-methyl-1H-pyrazol-4-yl)quinazolin-4-yl)-7-fluorobenzo[d]thiazol-6-amine]"
≤ 0.01 µM,≤ 0.01 µM,≤ 0.01 µM,"COc1nn(C)cc1-c1cc(OC2CC2)c2c(Nc3ccc4ncsc4c3)ncnc2c1 [Example 77, N-(5-cyclopropoxy-7-(3-methoxy-1-methyl-1H-pyrazol-4-yl)quinazolin-4-yl)benzo[d]thiazol-6-amine]"
0.0101 to 0.05 µM,≤ 0.01 µM,≤ 0.01 µM,"C[C@H](Oc1cc(-c2cnn(C)c2)cc2ncnc(Nc3ccc4ncsc4c3F)c12)C1CCOC1 (stereo partly drawn) [Example 90, 7-fluoro-N-(7-(1-methyl-1H-pyrazol-4-yl)-5-((1S)-1-(tetrahydrofuran-3-yl)ethoxy)quinazolin-4-yl)benzo[d]thiazol-6-amine]"
≤ 0.01 µM,≤ 0.01 µM,≤ 0.01 µM,"COC[C@@H](C)Oc1cc(-c2cnn(C)c2)cc2ncnc(Nc3ccc4ncsc4c3F)c12 [Example 91, (R)-7-fluoro-N-(5-((1-methoxypropan-2-yl)oxy)-7-(1-methyl-1H-pyrazol-4-yl)quinazolin-4-yl)benzo[d]thiazol-6-amine]"
≤ 0.01 µM,≤ 0.01 µM,≤ 0.01 µM,"C[C@@H](Oc1cc(-c2cnn(C)c2)cc2ncnc(Nc3ccc4ncsc4c3F)c12)[C@@H]1CCCO1 [Example 112, 7-fluoro-N-(7-(1-methyl-1H-pyrazol-4-yl)-5-((R)-1-((S)-tetrahydrofuran-2-yl)ethoxy)quinazolin-4-yl)benzo[d]thiazol-6-amine]"
≤ 0.01 µM,≤ 0.01 µM,≤ 0.01 µM,"C[C@@H](Oc1cc(-c2cnn(C)c2)cc2ncnc(Nc3ccc4ncsc4c3F)c12)[C@H]1CCCO1 [Example 113, 7-fluoro-N-(7-(1-methyl-1H-pyrazol-4-yl)-5-((R)-1-((R)-tetrahydrofuran-2-yl)ethoxy)quinazolin-4-yl)benzo[d]thiazol-6-amine]"
0.0101 to 0.05 µM,≤ 0.01 µM,≤ 0.01 µM,"C[C@@H](Oc1cc(N2CCN(C)CC2)cc2ncnc(Nc3ccc4ncsc4c3F)c12)[C@@H]1CCCO1 [Example 114, 7-fluoro-N-(7-(4-methylpiperazin-1-yl)-5-((R)-1-((S)-tetrahydrofuran-2-yl)ethoxy)quinazolin-4-yl)benzo[d]thiazol-6-amine]"
≤ 0.01 µM,≤ 0.01 µM,≤ 0.01 µM,"C[C@@H](Oc1cc(N2CCN(C)CC2)cc2ncnc(Nc3ccc4ncsc4c3F)c12)[C@H]1CCCO1 [Example 115, 7-fluoro-N-(7-(4-methylpiperazin-1-yl)-5-((R)-1-((R)-tetrahydrofuran-2-yl)ethoxy)quinazolin-4-yl)benzo[d]thiazol-6-amine]"
